Among the data in ChEMBL document CHEMBL3233003, “Chromodomain antagonists that target the polycomb-group methyllysine reader protein chromobox homolog 7 (CBX7)” (J Med Chem, 2014) are IC50 values, retold here.

Molecules are shown by their SMILES. Starred links: 1 amine or outer side, 2 acyl side, 3 side chain; linkers in the order of their positions; H or OH if unused. Non-standard residues stand in square brackets, D forms with d. Residues, ends and D or L forms follow the SMILES beside them. *: point of attachment. Lys(Me3) = C[N+](C)(C)CCCC[C@H](N)C(=O)O; Ethylenediamine = C(CN[*:2])N[*:1]; X5 = c1ccc2[nH]c(N*)nc2c1; X9 = O[C@H]1CCCC[C@@H]1N*; NHCH(CH2OH)2 = OCC(CO)N*; Boc = CC(C)(C)OC(=O)*; NHCH2CH2OH = OCCN*; X8 = OCC1(N*)CCCC1; X4 = CC(C)C(CO)N*; X1 = CCCC(CO)N*; NHPr = CCCN*

For the assay, the target named is T1, Chromobox protein homolog 7 (Homo sapiens, UniProt O95931).
T1 sequence (O95931 whole entry): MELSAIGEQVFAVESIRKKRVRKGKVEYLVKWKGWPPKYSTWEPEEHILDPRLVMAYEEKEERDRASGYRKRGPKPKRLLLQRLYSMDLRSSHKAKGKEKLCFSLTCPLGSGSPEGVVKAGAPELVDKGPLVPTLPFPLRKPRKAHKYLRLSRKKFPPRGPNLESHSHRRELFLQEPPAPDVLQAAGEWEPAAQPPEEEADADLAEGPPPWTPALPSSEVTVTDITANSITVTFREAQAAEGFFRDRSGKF
The assay can be described thus: Displacement of FITC-labeled H3K27me3 from CBX7 (unknown origin) after 15 mins by fluorescence polarization assay.
As a reminder, the IC50 is the point on the concentration scale where inhibition reaches its midpoint. Turning to `CC[C@H](NC(=O)[C@H](Cc1ccccc1)NC(C)=O)C(=O)N[C@@H](CC(C)C)C(=O)N[C@@H](CCCC[N+](C)(C)C)C(=O)N[C@@H](CO)C(N)=O`, the IC50 is 39 µM.

`CC(=O)N[C@@H](Cc1ccccc1)C(=O)N[C@@H](C)C(=O)N[C@@H](CC(C)C)C(=O)N[C@@H](CCCC[N+](C)(C)C)C(=O)N[C@@H](CO)C(=O)O` came in with an IC50 of 27 µM.

In the case of `CC(=O)N[C@@H](Cc1ccccc1)C(=O)N[C@@H](C)C(=O)N[C@@H](CC(C)C)C(=O)N[C@@H](CCCC[N+](C)(C)C)C(=O)N[C@H](CO)C(=O)O`, the IC50 was 79 µM. The figure for `CC(C)C[C@H](NC(=O)[C@H](C)NCc1ccc(C(=O)O)cc1)C(=O)N[C@@H](CCCC[N+](C)(C)C)C(=O)N[C@@H](CO)C(N)=O` is > 2000 µM; for `CC(=O)N[C@@H](Cc1ccccc1)C(=O)N[C@@H](C)C(=O)N[C@@H](Cc1ccccc1)C(=O)N[C@@H](CCCC[N+](C)(C)C)C(=O)N[C@@H](CO)C(N)=O` (Ac-FAF[Lys(Me3)]S-NH2) it is 10.3 µM; for `CC[C@H](C)[C@H](NC(=O)[C@H](C)NC(=O)[C@H](Cc1ccccc1)NC(C)=O)C(=O)N[C@@H](CCCC[N+](C)(C)C)C(=O)N[C@@H](CO)C(N)=O` (Ac-FAI[Lys(Me3)]S-NH2) it is 5.7 µM.

As for `CC(=O)N[C@@H](Cc1ccccc1)C(=O)N[C@@H](C)C(=O)N[C@@H](CCCCN)C(=O)N[C@@H](CCCC[N+](C)(C)C)C(=O)N[C@@H](CO)C(N)=O` (Ac-FAK[Lys(Me3)]S-NH2), the IC50 came to 10.1 µM.

Regarding `CC(=O)N[C@@H](Cc1ccccc1)C(=O)N[C@@H](C)C(=O)N[C@@H](CC(C)C)C(=O)N[C@@H](CCCC[N+](C)(C)C)C(=O)NCCN` (Ac-FAL[Lys(Me3)]-Ethylenediamine), the IC50 was 22 µM.

With `CC(=O)N[C@@H](Cc1ccccc1)C(=O)N[C@@H](C)C(=O)N[C@@H](CC(C)C)C(=O)N[C@@H](CCCC[N+](C)(C)C)C(=O)NCCO` (Ac-FAL[Lys(Me3)]-NHCH2CH2OH), the IC50 came to 26 µM. The figure for `CCCNC(=O)[C@H](CCCC[N+](C)(C)C)NC(=O)[C@H](CC(C)C)NC(=O)[C@H](C)NC(=O)[C@H](Cc1ccccc1)NC(C)=O` (Ac-FAL[Lys(Me3)]-NHPr) is 102 µM; for `CC(=O)N[C@@H](Cc1ccccc1)C(=O)N[C@@H](C)C(=O)N[C@@H](CC(C)C)C(=O)N[C@@H](CCCC[N+](C)(C)C)C(=O)O` (Ac-FAL[Lys(Me3)]-OH) it is 560 µM; for `CCCC(CO)NC(=O)[C@H](CCCC[N+](C)(C)C)NC(=O)[C@H](CC(C)C)NC(=O)[C@H](C)NC(=O)[C@H](Cc1ccccc1)NC(C)=O` (stereo partly drawn) (Ac-FAL[Lys(Me3)]-X1) it is > 500 µM. Next, `CC(=O)N[C@@H](Cc1ccccc1)C(=O)N[C@@H](C)C(=O)N[C@@H](CC(C)C)C(=O)N[C@@H](CCCC[N+](C)(C)C)C(=O)NC(CO)C(C)C` (stereo partly drawn) (Ac-FAL[Lys(Me3)]-X4): > 250 µM. For `CC(=O)N[C@@H](Cc1ccccc1)C(=O)N[C@@H](C)C(=O)N[C@@H](CC(C)C)C(=O)N[C@@H](CCCC[N+](C)(C)C)C(=O)Nc1nc2ccccc2[nH]1` (Ac-FAL[Lys(Me3)]-X5), the IC50 is 35 µM.

As for `CC(=O)N[C@@H](Cc1ccccc1)C(=O)N[C@@H](C)C(=O)N[C@@H](CC(C)C)C(=O)N[C@@H](CCCC[N+](C)(C)C)C(=O)NC1(CO)CCCC1` (Ac-FAL[Lys(Me3)]-X8), the 50% inhibitory concentration (IC50) is > 250 µM.

On to `CC(=O)N[C@@H](Cc1ccccc1)C(=O)N[C@@H](C)C(=O)N[C@@H](CC(C)C)C(=O)N[C@@H](CCCC[N+](C)(C)C)C(=O)N[C@H]1CCCC[C@@H]1O` (Ac-FAL[Lys(Me3)]-X9), for which the IC50 is > 250 µM.

As to `CC(=O)N[C@@H](Cc1ccccc1)C(=O)N[C@@H](C)C(=O)N[C@@H](CC(C)C)C(=O)N[C@@H](CCCC[N+](C)(C)C)C(=O)NCCNC(=O)OC(C)(C)C` (Ac-FAL[Lys(Me3)]-{Ethylenediamine-Boc}), the IC50 is 105 µM.

`CC(=O)N[C@@H](Cc1ccccc1)C(=O)N[C@@H](C)C(=O)N[C@@H](CC(C)C)C(=O)N[C@@H](CCCC[N+](C)(C)C)C(=O)NC(CO)CO` (Ac-FAL[Lys(Me3)]-{NHCH(CH2OH)2}): the 50% inhibitory concentration (IC50) was 23 µM.
